In patent publication US20140221498A1, “AMINO DIOL DERIVATIVES AS SPHINGOSINE 1-PHOSPHATE (S1P) RECEPTOR MODULATORS” (ALLERGAN, INC., priority 2013, published 2014) one finds EC50 data, which are given here for three molecules.

SMILES strings stand for the structures.

The target of this experiment is T1, human S1P1 receptor (Homo sapiens, UniProt P21453).
T1 construct: expressed in transfected cells; membranes used
T1 sequence (P21453 whole entry): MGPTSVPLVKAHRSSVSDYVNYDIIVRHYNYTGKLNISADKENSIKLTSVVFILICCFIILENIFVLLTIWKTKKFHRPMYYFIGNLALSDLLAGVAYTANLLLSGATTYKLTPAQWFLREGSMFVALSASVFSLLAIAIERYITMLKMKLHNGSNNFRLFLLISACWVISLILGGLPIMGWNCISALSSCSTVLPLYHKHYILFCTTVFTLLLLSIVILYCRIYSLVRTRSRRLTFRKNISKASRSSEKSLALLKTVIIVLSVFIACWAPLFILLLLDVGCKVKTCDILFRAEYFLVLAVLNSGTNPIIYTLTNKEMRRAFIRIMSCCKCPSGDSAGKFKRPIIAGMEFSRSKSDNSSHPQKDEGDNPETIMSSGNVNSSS
Put plainly: GTP γ35S binding assay for S1P1 activity. The experiment is classed as biochemical. The following applies: membranes of cells stably expressing the S1P1 receptor, test compounds 0.08 to 5,000 nM, 30 min at 25° C. The protocol:
Compounds were synthesized and tested for S1P1 activity using the GTP γ^35S binding assay. These compounds may be assessed for their ability to activate or block activation of the human S1P1 receptor in cells stably expressing the S1P1 receptor.
GTP γ^35S binding was measured in the medium containing (mM) HEPES 25, pH 7.4, MgCl2 10, NaCl 100, dithitothreitol 0.5, digitonin 0.003%, 0.2 nM GTP γ^35S, and 5 μg membrane protein in a volume of 150 μl. Test compounds were included in the concentration range from 0.08 to 5,000 nM unless indicated otherwise. Membranes were incubated with 100 μM 5′-adenylylimmidodiphosphate for 30 min, and subsequently with 10 μM GDP for 10 min on ice. Drug solutions and membrane were mixed, and then reactions were initiated by adding GTP γ^35S and continued for 30 min at 25° C. Reaction mixtures were filtered over Whatman GF/B filters under vacuum, and washed three times with 3 mL of ice-cold buffer (HEPES 25, pH7.4, MgCl2 10 and NaCl 100). Filters were dried and mixed with scintillant, and counted for ^35S activity using a β-counter. Agonist-induced GTP γ^35S binding was obtained by subtracting that in the absence of agonist. Binding data were analyzed using a non-linear regression method. In case of antagonist assay, the reaction mixture contained 10 nM S1P in the presence of test antagonist at concentrations ranging from 0.08 to 5000 nM.
In turn, `Cc1ccc(CC(CCCOc2ccc(CCC(N)(CO)CO)cc2)c2cc(F)cc(F)c2)cc1C` (stereo not drawn) [Compound 1, 2-amino-2-[2-(4-{[4-(3,5-difluorophenyl)-5-(3,4-dimethylphenyl)pentyl]oxy}phenyl)ethyl]propane-1,3-diol] had an EC50 of 15.1 nM.
The molecule `Cc1ccc(CC(CCCOc2ccc(CCC(N)(CO)CO)cc2)c2cccc(F)c2)cc1C` (stereo not drawn) [Compound 2, 2-amino-2-[2-(4-{[5-(3,4-dimethylphenyl)-4-(3-fluorophenyl)pentyl]oxy}phenyl)ethyl]propane-1,3-diol] displayed an EC50 of 42 nM.
Regarding `Cc1ccc(CC(CCCOc2ccc(CCC(N)(CO)CO)cc2)c2cccc(Cl)c2)cc1C` (stereo not drawn) [Compound 3, 2-amino-2-[2-(4-{[4-(3-chlorophenyl)-5-(3,4-dimethylphenyl)pentyl]oxy}phenyl)ethyl]propane-1,3-diol], the midpoint of the response, the EC50, lay at 92.4 nM.
